Key:
[1] = target: T1, Amine oxidase [flavin-containing] A (Homo sapiens, UniProt P21397); assay: Inhibition of MAO-A (unknown origin) at 10 mM relative to control; parameters: dose or concentration left out as unconfirmed
T1 sequence (P21397 whole entry): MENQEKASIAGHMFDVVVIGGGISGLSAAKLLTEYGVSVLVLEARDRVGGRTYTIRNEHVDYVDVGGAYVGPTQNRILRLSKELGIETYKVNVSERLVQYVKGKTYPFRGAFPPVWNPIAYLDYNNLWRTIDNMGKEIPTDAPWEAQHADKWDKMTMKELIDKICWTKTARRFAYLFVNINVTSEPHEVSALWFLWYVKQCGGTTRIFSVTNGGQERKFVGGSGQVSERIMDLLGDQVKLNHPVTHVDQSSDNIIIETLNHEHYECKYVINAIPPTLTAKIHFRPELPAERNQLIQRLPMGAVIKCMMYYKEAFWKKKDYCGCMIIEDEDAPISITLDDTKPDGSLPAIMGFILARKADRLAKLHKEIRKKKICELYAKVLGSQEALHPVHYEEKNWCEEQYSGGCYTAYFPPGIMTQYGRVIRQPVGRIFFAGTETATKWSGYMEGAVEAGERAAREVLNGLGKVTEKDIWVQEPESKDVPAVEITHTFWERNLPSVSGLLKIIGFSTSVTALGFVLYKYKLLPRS

[2] = target: T1, Amine oxidase [flavin-containing] A; assay: Inhibition of MAO-A (unknown origin) at 1 mM relative to control
[3] = target: T2, Aromatase (Homo sapiens, UniProt P11511); assay: Inhibition of aromatase (unknown origin)
T2 sequence (P11511 whole entry): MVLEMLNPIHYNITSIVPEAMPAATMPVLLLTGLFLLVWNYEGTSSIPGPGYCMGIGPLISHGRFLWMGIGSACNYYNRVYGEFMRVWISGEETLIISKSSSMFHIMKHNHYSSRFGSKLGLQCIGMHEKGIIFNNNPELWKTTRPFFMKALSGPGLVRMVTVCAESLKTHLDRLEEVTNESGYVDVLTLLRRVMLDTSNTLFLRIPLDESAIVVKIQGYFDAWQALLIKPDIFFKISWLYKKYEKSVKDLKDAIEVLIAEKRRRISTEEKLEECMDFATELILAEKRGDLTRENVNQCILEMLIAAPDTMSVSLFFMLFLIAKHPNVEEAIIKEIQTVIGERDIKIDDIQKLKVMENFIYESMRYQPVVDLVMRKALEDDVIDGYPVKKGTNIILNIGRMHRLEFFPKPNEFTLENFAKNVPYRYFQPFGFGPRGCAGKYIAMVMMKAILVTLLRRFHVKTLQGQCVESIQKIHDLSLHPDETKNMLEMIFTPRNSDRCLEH

[4] = target: T3, Amine oxidase [flavin-containing] B (Homo sapiens, UniProt P27338); assay: Inhibition of MAO-B (unknown origin)
T3 sequence (P27338 whole entry): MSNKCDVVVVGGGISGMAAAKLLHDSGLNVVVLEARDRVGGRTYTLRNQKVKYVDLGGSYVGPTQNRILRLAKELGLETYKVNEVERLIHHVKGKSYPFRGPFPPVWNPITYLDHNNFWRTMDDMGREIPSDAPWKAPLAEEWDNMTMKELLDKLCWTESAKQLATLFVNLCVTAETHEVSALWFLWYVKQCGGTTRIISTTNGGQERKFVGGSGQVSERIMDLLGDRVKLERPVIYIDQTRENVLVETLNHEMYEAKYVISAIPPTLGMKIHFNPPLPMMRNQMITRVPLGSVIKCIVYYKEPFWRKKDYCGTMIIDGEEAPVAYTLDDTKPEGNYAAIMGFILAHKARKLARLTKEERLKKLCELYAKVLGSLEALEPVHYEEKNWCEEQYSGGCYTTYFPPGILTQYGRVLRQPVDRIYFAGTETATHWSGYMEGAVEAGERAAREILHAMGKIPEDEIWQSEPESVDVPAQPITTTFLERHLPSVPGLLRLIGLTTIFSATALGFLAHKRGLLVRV

[5] = target: T1, Amine oxidase [flavin-containing] A; assay: Inhibition of MAO-A (unknown origin)

| inhibition [1] [%] | inhibition at 1000 µM [2] [%] | IC50 [3] [nM] | IC50 [4] [nM] | IC50 [5] [nM] | SMILES |
| --- | --- | --- | --- | --- | --- |
| 28.1 | 50 | – | – | – | COc1ccc(-c2csc(N/N=C/c3ccc4cc(OC)ccc4c3)n2)cc1 |
| 35.5 | 52.2 | – | – | – | COc1ccc2cc(/C=N/Nc3nc(-c4ccc(F)cc4)cs3)ccc2c1 |
| 31.1 | 49.8 | – | – | – | COc1ccc2cc(/C=N/Nc3nc(-c4ccc(C)cc4)cs3)ccc2c1 |
| 30.2 | 60.2 | 31 | 39 | – | CCOC(=O)Cc1csc(N/N=C/c2ccc3cc(OC)ccc3c2)n1 |
| 82.3 | 90.9 | – | – | 72 | COc1ccc2cc(/C=N/Nc3nc(-c4ccccc4)c(C)s3)ccc2c1 |
| 33.9 | 55.8 | 42 | – | – | COc1ccc2cc(/C=N/NC3=NC(=O)CS3)ccc2c1 |
| 84.1 | 90.5 | – | 46 | 68 | COc1ccc2cc(/C=N/Nc3nc(-c4cccc([N+](=O)[O-])c4)cs3)ccc2c1 |
| 35.7 | 55.9 | – | – | – | COc1ccc2cc(/C=N/Nc3nc(-c4ccc5ccccc5c4)cs3)ccc2c1 |
| 28.8 | 48.4 | – | – | – | COc1ccc2cc(/C=N/Nc3nc(-c4ccc(Cl)cc4)cs3)ccc2c1 |
| 34.2 | 59.2 | – | – | – | COc1ccc2cc(/C=N/Nc3nc(-c4ccc(-c5ccccc5)cc4)cs3)ccc2c1 |
| 39.9 | 48.4 | – | – | – | COc1ccc2cc(/C=N/Nc3nc(-c4cccc(Cl)c4)cs3)ccc2c1 |
| 37 | 53.5 | – | – | – | COc1ccc2cc(/C=N/Nc3nc(-c4ccc(S(C)(=O)=O)cc4)cs3)ccc2c1 |
| 26.6 | 51.4 | – | – | – | COc1ccc2cc(/C=N/Nc3nc(-c4ccccc4)cs3)ccc2c1 |
| 32.5 | 47.7 | – | – | – | COc1ccc2cc(/C=N/Nc3nc(-c4ccc(Cl)c(Cl)c4)cs3)ccc2c1 |
| 33.4 | 57.8 | – | 82 | – | COc1ccc2cc(/C=N/Nc3nc(-c4ccc([N+](=O)[O-])cc4)cs3)ccc2c1 |
| 32.1 | 59.4 | – | – | – | COc1ccc2cc(/C=N/Nc3nc(-c4cccc(F)c4)cs3)ccc2c1 |
| 29.3 | 58.2 | – | – | – | CCOC(=O)c1sc(N/N=C/c2ccc3cc(OC)ccc3c2)nc1C |
| 30.4 | 58.7 | – | – | – | COc1ccc2cc(/C=N/Nc3nc(-c4ccc(C#N)cc4)cs3)ccc2c1 |
| 21.9 | 56.7 | – | – | – | COc1cccc(-c2csc(N/N=C/c3ccc4cc(OC)ccc4c3)n2)c1 |
| 27.7 | 58.4 | – | – | – | COc1ccc2cc(/C=N/Nc3nc(-c4cc5ccccc5o4)cs3)ccc2c1 |
| 30.9 | 54.4 | – | – | – | COc1ccc2cc(/C=N/Nc3nc(C)c(C)s3)ccc2c1 |
